Data from ChEMBL document CHEMBL1156312, “Comparison of the antiplasmodial and falcipain-2 inhibitory activity of beta-amino alcohol thiolactone-chalcone and isatin-chalcone hybrids” (Bioorg Med Chem Lett, 2010).

What was measured:
Plasmodium falciparum = experiment: Antimicrobial activity against chloroquine-resistant Plasmodium falciparum W2; format: functional, organism-based
[1] = Inhibition of recombinant Plasmodium falciparum falcipain-2

Row | SMILES | IC50 (Plasmodium falciparum) | IC50 [1]
1 | COc1ccc(C(=O)/C=C/c2ccccc2OCc2cn(CC(O)CN3C(=O)C(=O)c4cc(Cl)ccc43)nn2)cc1 (stereo not given) | 25.4 µM | > 20 µM
2 | COc1ccc(/C=C/C(=O)c2ccccc2OCc2cn(CC(O)CN3C(=O)C(=O)c4cc(Cl)ccc43)nn2)cc1 (stereo not given) | 16 µM | 7.79 µM
3 | COc1ccc(C(=O)/C=C/c2ccc(OCc3cn(CC(O)COC4=C(C)C(=O)SC4C)nn3)cc2)cc1 (stereo not given) | > 100 µM | 3.12 µM
4 | COc1ccc(/C=C/C(=O)c2cccc(OCc3cn(CC(O)COC4=C(C)C(=O)SC4C)nn3)c2)cc1 (stereo not given) | > 100 µM | 3.69 µM
5 | COc1ccc(/C=C/C(=O)c2ccc(OCc3cn(CC(O)CN4C(=O)C(=O)c5cc(Cl)ccc54)nn3)cc2)c(OC)c1OC (stereo not given) | 25.1 µM | > 20 µM
6 | COc1ccc(C(=O)/C=C/c2ccccc2OCc2cn(CC(O)CN3C(=O)C(=O)c4cc(Cl)ccc43)nn2)c(OC)c1OC (stereo not given) | 90.5 µM | 6.1 µM
7 | COc1ccc(/C=C/C(=O)c2ccccc2OCc2cn(CC(O)COC3=C(C)C(=O)SC3C)nn2)cc1 (stereo not given) | > 100 µM | 2.64 µM
8 | COc1ccc(/C=C/C(=O)c2cccc(OCc3cn(CC(O)CN4C(=O)C(=O)c5cc(Cl)ccc54)nn3)c2)c(OC)c1OC (stereo not given) | 16.7 µM | 2.57 µM
9 | COc1ccc(C(=O)/C=C/c2ccccc2OCc2cn(CC(O)CN3C(=O)C(=O)c4cc(Cl)ccc43)nn2)c(OC)c1 (stereo not given) | 15.6 µM | > 20 µM
10 | COc1ccc(C(=O)/C=C/c2cccc(OCc3cn(CC(O)COC4=C(C)C(=O)SC4C)nn3)c2)c(OC)c1 (stereo not given) | > 100 µM | 1.64 µM
11 | COc1ccc(/C=C/C(=O)c2cccc(OCc3cn(CC(O)CN4C(=O)C(=O)c5cc(Cl)ccc54)nn3)c2)cc1 (stereo not given) | 9.91 µM | 3.57 µM
12 | COc1ccc(C(=O)/C=C/c2ccc(OCc3cn(CC(O)COC4=C(C)C(=O)SC4C)nn3)cc2)c(OC)c1OC (stereo not given) | > 100 µM | 5.04 µM
13 | COc1ccc(/C=C/C(=O)c2cccc(OCc3cn(CC(O)COC4=C(C)C(=O)SC4C)nn3)c2)c(OC)c1OC (stereo not given) | > 100 µM | 0.68 µM
14 | COc1ccc(/C=C/C(=O)c2ccc(OCc3cn(CC(O)CN4C(=O)C(=O)c5cc(Cl)ccc54)nn3)cc2)c(OC)c1 (stereo not given) | 18.3 µM | 14.5 µM
15 | C=C/C(C)=C/[C@@]1(C)SC(=O)C(C)=C1O [THIOLACTOMYCIN] | > 100 µM | > 20 µM
16 | CC1=C(O)SC(C)C1=O (stereo not given) [THIOLACTONE] | > 100 µM | > 20 µM
17 | COc1ccc(/C=C/C(=O)c2ccccc2OCc2cn(CC(O)CN3C(=O)C(=O)c4cc(Cl)ccc43)nn2)c(OC)c1OC (stereo not given) | 15.3 µM | 6.21 µM
18 | COc1ccc(/C=C/C(=O)c2ccccc2OCc2cn(CC(O)CN3C(=O)C(=O)c4cc(Cl)ccc43)nn2)c(OC)c1 (stereo not given) | 15 µM | 2.09 µM
19 | COc1ccc(/C=C/C(=O)c2ccc(OCc3cn(CC(O)COC4=C(C)C(=O)SC4C)nn3)cc2)c(OC)c1OC (stereo not given) | > 100 µM | 0.81 µM
20 | O=C1Nc2ccccc2C1=O [ISATIN] | > 100 µM | > 20 µM
21 | COc1ccc(/C=C/C(=O)c2ccccc2OCc2cn(CC(O)COC3=C(C)C(=O)SC3C)nn2)c(OC)c1 (stereo not given) | > 100 µM | 2.14 µM

Row | SMILES | IC50 (Plasmodium falciparum) | IC50 [1]
22 | COC1(OC)C(=O)N(CC(O)CN=[N+]=[N-])c2ccc(Cl)cc21 (stereo not given) | > 100 µM | > 20 µM
23 | CC1=C(OCC(O)CN=[N+]=[N-])C(C)SC1=O (stereo not given) | > 100 µM | > 20 µM
24 | COc1ccc(C(=O)/C=C/c2ccc(OCc3cn(CC(O)CN4C(=O)C(=O)c5cc(Cl)ccc54)nn3)cc2)c(OC)c1OC (stereo not given) | 16.6 µM | 11 µM
25 | COc1ccc(C(=O)/C=C/c2ccccc2OCc2cn(CC(O)COC3=C(C)C(=O)SC3C)nn2)cc1 (stereo not given) | > 100 µM | 2.31 µM
26 | COc1ccc(C(=O)/C=C/c2ccc(OCc3cn(CC(O)CN4C(=O)C(=O)c5cc(Cl)ccc54)nn3)cc2)cc1 (stereo not given) | 10.8 µM | 10.6 µM
27 | COc1ccc(C(=O)/C=C/c2ccc(OCc3cn(CC(O)COC4=C(C)C(=O)SC4C)nn3)cc2)c(OC)c1 (stereo not given) | > 100 µM | 1.54 µM
28 | CCN(CC)CCCC(C)Nc1ccnc2cc(Cl)ccc12 (stereo not given) [CHLOROQUINE] |  | 0.0694 µM
29 | COc1ccc(C(=O)/C=C/c2cccc(OCc3cn(CC(O)COC4=C(C)C(=O)SC4C)nn3)c2)cc1 (stereo not given) | > 100 µM | 2.43 µM
30 | COc1ccc(C(=O)/C=C/c2cccc(OCc3cn(CC(O)CN4C(=O)C(=O)c5cc(Cl)ccc54)nn3)c2)c(OC)c1OC (stereo not given) | 11.5 µM | 2.18 µM
31 | COc1ccc(/C=C/C(=O)c2cccc(OCc3cn(CC(O)CN4C(=O)C(=O)c5cc(Cl)ccc54)nn3)c2)c(OC)c1 (stereo not given) | 10.6 µM | 2.95 µM
32 | COc1ccc(/C=C/C(=O)c2ccc(OCc3cn(CC(O)COC4=C(C)C(=O)SC4C)nn3)cc2)cc1 (stereo not given) | > 100 µM | 6.08 µM
33 | COc1ccc(C(=O)/C=C/c2ccc(OCc3cn(CC(O)CN4C(=O)C(=O)c5cc(Cl)ccc54)nn3)cc2)c(OC)c1 (stereo not given) |  | 9.73 µM
34 | COc1ccc(C(=O)/C=C/c2cccc(OCc3cn(CC(O)CN4C(=O)C(=O)c5cc(Cl)ccc54)nn3)c2)cc1 (stereo not given) | 10.3 µM | 5.75 µM
35 | COc1ccc(/C=C/C(=O)c2ccc(OCc3cn(CC(O)CN4C(=O)C(=O)c5cc(Cl)ccc54)nn3)cc2)cc1 (stereo not given) | 15.9 µM | 14.9 µM
36 | COc1ccc(C(=O)/C=C/c2cccc(OCc3cn(CC(O)COC4=C(C)C(=O)SC4C)nn3)c2)c(OC)c1OC (stereo not given) | > 100 µM | 2 µM
37 | COc1ccc(/C=C/C(=O)c2cccc(OCc3cn(CC(O)COC4=C(C)C(=O)SC4C)nn3)c2)c(OC)c1 (stereo not given) | > 100 µM | 3.51 µM
38 | COc1ccc(/C=C/C(=O)c2ccc(OCc3cn(CC(O)COC4=C(C)C(=O)SC4C)nn3)cc2)c(OC)c1 (stereo not given) | 28.5 µM | 3.1 µM
39 | COc1ccc(C(=O)/C=C/c2ccccc2OCc2cn(CC(O)COC3=C(C)C(=O)SC3C)nn2)c(OC)c1OC (stereo not given) | > 100 µM | 1.14 µM
40 | COc1ccc(C(=O)/C=C/c2ccccc2OCc2cn(CC(O)COC3=C(C)C(=O)SC3C)nn2)c(OC)c1 (stereo not given) | > 100 µM | 2.08 µM
41 | COc1ccc(C(=O)/C=C/c2cccc(OCc3cn(CC(O)CN4C(=O)C(=O)c5cc(Cl)ccc54)nn3)c2)c(OC)c1 (stereo not given) | 6.8 µM | 3.17 µM
